This passage reports melting point results from a melting point compilation (Tetko et al.).

For `CC1(C(=O)O)CC2C=CC1C2` (stereo not drawn), the melting point turned out to be 80 °C.
Compound `CCN(CC)CC(=O)OCC(=O)C1(O)CCC2C3CCC4=CC(=O)C=CC4(C)C3C(O)CC21C` (stereo not drawn) came in with a melting point of 176 °C.
As to `N#Cc1c(-c2ccccc2)nn(-c2ccccc2)c1N`, the melting point came to 161 °C.
On to `CCNC(=O)C=C(C)C=CC=C(C)C=Cc1c(C)cc(OC)c(C)c1C`, for which the melting point worked out at 180 °C.
Regarding `CCNc1cc(NC(C)=O)ccc1C`, the melting point lay in the range of 107 to 109 °C.
Then `COc1cc2c(c(OC)c1OC)-c1ccc(SC)c(=O)cc1C(NC(C)=O)CC2` (stereo not drawn), with 193 °C; and `COc1cc2cc[nH]c2cc1OC`, with 157 °C.
As for `CCCN(CCC)C(=O)Cc1c(-c2ccc(Cl)cc2)nc2ccc(Cl)cn12`, the figure is 140 °C.
Then `NS(=O)(=O)c1cc2c(cc1C(F)(F)F)NC(Cc1ccccc1)NS2(=O)=O` (stereo not drawn), with 222 °C; and `O=C=Nc1cccc(Cl)c1`, with -4 °C.
Compound `CN1CCN(c2ncc(Br)c(OCc3ccccc3)n2)CC1` gave a melting point of 63 °C.
As for `C=C(Br)c1ccccc1`, the figure is -44 °C.
Consider `O=C(Nc1nc(-c2ccccc2)cs1)c1ccccc1`, for which the melting point stood at 123 °C.
Then `Cc1ccncc1C(=O)NN`, with 177 °C.
Then `CNC(=O)Oc1cccc(C)c1`, with 77.7 °C; and `O=C(NCCCCCCCCNC(=O)C(Cl)Cl)C(Cl)Cl`, with 118 to 120 °C; and `c1ccc2c(c1)ccc1ncccc12`, with 94 °C.
As for `CCC1(O)c2ccccc2C1C` (stereo not drawn), the figure is 52 °C; as for `BrC12CC3CC(CC(C3)C1)C2`, 119 °C; as for `COc1ccc(OC)c(C(C)=O)c1O`, 49 to 51 °C.
`O=Cc1ccc(C=CC(=O)O)cc1` returned a melting point of 250 to 255 °C.
Then `NC(=S)Nc1ccc(F)c(F)c1F`, with 162 to 165 °C; and `CCC(C)(C)S`, with -104 °C.
As for `CSc1nc(N)c(C(=O)c2ccc([N+](=O)[O-])cc2)s1`, the melting point fell in the range of 200 to 202 °C.
Then `c1ccc(SSc2ccccn2)nc1`, with 58 °C.
Take `N#CCc1ccc(C(F)(F)F)cc1[N+](=O)[O-]`: the melting point amounted to 40 °C.
As for `O=[N+]([O-])CC(O)C(Cl)(Cl)Cl` (stereo not drawn), the figure is 45.5 °C; as for `CC1=CC2OC3C(O)CC(C)(C34CO4)C2(CO)C(O)C1=O` (stereo not drawn), 152 °C.
`CC(C)=CCCC(C)=CCCC(C)=CCO` displayed a melting point of 25 °C.
As for `FC(Cl)C(F)(F)Cl` (stereo not drawn), the figure is -78 °C; as for `CN(CC(=O)O)N=O`, 66.5 °C.
In the case of `CCOC(=O)C=CN(C)C`, the melting point came out at 17.5 °C.
Then `COc1cc(C(=O)NCc2ccc(OCCN(C)C)cc2)cc(OC)c1OC`, with 189 °C; and `O=C(c1ccc(F)cc1)c1cccs1`, with 97 °C.
The compound `COc1ccc(/C=C(\C#N)c2nc(-c3ccco3)cs2)cc1` had a melting point of 109 °C.
In turn, `CC1CCC(C)(C(=O)CN2C(=O)c3ccccc3C2=O)C1(C)C` (stereo not drawn) registered a melting point of 99 °C.
`CC(C)(C)OC(=O)N1CCC(Oc2ccc(C(=O)O)cc2)CC1` showed a melting point of 175 to 177 °C.
`CC(C)(C#N)C(C)(C)C#N` displayed a melting point of 170 °C.
Then `COC(=O)CC(=O)OC(C)(C)C`, with -10 °C.
For `O=CC(F)(F)C(F)(F)C(F)(F)C(F)(F)C(F)(F)C(F)(F)C(F)(F)C(F)(F)Cl`, the melting point fell in the range of 36 to 38 °C.
Turning to `CC12CCC(C(COC(=O)c3ccc([N+](=O)[O-])cc3)C1)C2(C)C` (stereo not drawn), the melting point turned out to be 100 °C.
Regarding `O=[N+]([O-])c1ccccc1SC1OC(CO)C(O)C(O)C1O` (stereo not drawn), the melting point was in the range of 196 to 203 °C.
With `COC(=O)c1ccc(C(=O)OC)c(N)c1`, the melting point lay within 132 to 134 °C.
As for `CC1(C)C(O)C(C)(C)C1O` (stereo not drawn), the figure is 126 to 134 °C; as for `Cc1ccc(N)c(C(=O)O)c1`, 174 to 177 °C; as for `CSc1nc(N)ns1`, 156 to 158 °C.
As for `N#Cc1ccc(C(F)(F)F)cc1[N+](=O)[O-]`, the figure is 44 °C; as for `Cc1ccc(N)cc1I`, 36 °C; as for `CC(Cc1ccccc1)=NNc1ccccc1`, 85 °C.
Then `CCC(=O)C(CC(C)N1CCOCC1)(c1ccccc1)c1ccccc1` (stereo not drawn), with 75 °C; and `CCCCNC(=O)CC#N`, with 54 to 55 °C.
`CN(C)c1ccc(O)cc1` displayed a melting point of 77 °C.
As for `COc1ccc2c3c1OC1CC(O)C=CC31CCN(C)C2` (stereo not drawn), the figure is 126 °C.
Compound `COC(=O)C1=C(C)NC(C)=C([N+](=O)[O-])C1c1ccccc1C(F)(F)F` (stereo not drawn) yielded a melting point of 166 to 172 °C.
Consider `CSc1nc(=O)n(CCO)c2c1CCC2`, for which the melting point lay within 193 to 195 °C.
As for `OCc1cccc(OCc2ccccc2)c1`, the figure is 49 °C; as for `Fc1cc2nc(S)[nH]c2cc1Cl`, 298 to 301 °C; as for `Nc1ccc2ccccc2c1S(=O)(=O)O`, 180 °C.
Then `CC(=O)Nc1ccc2c(c1)CCCC2=O`, with 127 to 129 °C; and `Cc1cc(C)c(C2(C)CC(C(=NO)c3cc4ccccc4o3)C2)c(C)c1` (stereo not drawn), with 189 to 190 °C; and `C[C@H](C(=O)O)c1ccccc1`, with 29 to 32 °C.
Then `O=c1[nH]c2scc(-c3ccccc3)c2c(=O)n1-c1ccc(Cl)c(Cl)c1`, with 274 to 276 °C; and `CC(=O)Nc1ccc(Br)c(F)c1`, with 151 °C.
On to `Cc1cc(C(F)(F)F)n2nc(N)c(/N=N/c3ccccc3[N+](=O)[O-])c2n1`, for which the melting point is 235 °C.
For the compound `Cc1cc(Br)cc(C)c1O`, the melting point amounted to 76 °C.
Take `CCNc1cc(O)ccc1C`: the melting point came to 88 °C.
As for `Cc1ccc(C(=O)NS(=O)(=O)c2ccc(N)cc2)cc1C`, the figure is 222 °C; as for `O=C(O)c1c(O)cccc1O`, 160 to 165 °C; as for `O=[N+]([O-])c1ccc2c(c1)=[N+]([O-])C1(CCCC1)[N+]=2[O-]`, 148 to 150 °C.
As for `COc1cccc(C=C[N+](=O)[O-])c1OC`, the figure is 83 to 85 °C.
Regarding `CCCCCCCCCCCCC1CCC1=O` (stereo not drawn), the melting point lay in the range of 28 to 31 °C.
Then `O=C1CCCN1c1ccc(S(=O)(=O)Cl)cc1`, with 107 to 108 °C.
In the case of `O=C1CCc2ccc(O)cc2N1`, the melting point was 232 °C.
The compound `O=C(OOC(=O)c1ccc(Cl)cc1Cl)c1ccc(Cl)cc1Cl` registered a melting point of 106 °C.
The compound `Oc1cc2c(cc1O)CCN=C2` returned a melting point of 244 to 248 °C.
Take `Cc1nn(Cc2cccc(C(=O)O)c2)c(C)c1Br`: the melting point lay within 224 to 226 °C.
Then `S=C=Nc1ccc(Cl)cc1Cl`, with 38 °C.
`C=Cc1c2ccccc2cc2ccccc12` had a melting point of 64 to 66 °C.
Regarding `Nc1ccc(-c2ccc(N)cc2C(F)(F)F)c(C(F)(F)F)c1`, the melting point amounted to 183 °C.
`CC(c1ccccc1)C(C)(C)O` (stereo not drawn) had a melting point of 46 °C.
The compound `O=C(NC1CCN(Cc2ccccc2)C1)C(F)(F)F` (stereo not drawn) displayed a melting point of 71 °C.
Then `Cc1ccc(C(=O)NCC(=O)O)cc1`, with 162 to 166 °C.
Then `C#CCCCCCCCC`, with -44 °C; and `CCC(N)C(O)c1ccccc1` (stereo not drawn), with 79.5 °C; and `CCOC(=O)NC(=S)Nc1cccc(C)n1`, with 127 to 129 °C.
As for `O=C(OCCOc1ccc(Cl)cc1Cl)c1ccccc1`, the figure is 66 °C.
The compound `O=C(CBr)c1cccc2c1OCCO2` yielded a melting point of 71 to 72 °C.
Compound `COc1ccc(-c2ccc(OC)cc2)cc1` gave a melting point of 177 to 181 °C.
As to `CN(N)C(=O)c1cc(Cl)ccc1N`, the melting point lay within 78 to 81 °C.
With `CC1(c2ccccc2)OC(C(=O)O)=CC1=O` (stereo not drawn), the melting point was 176 °C.
Then `COc1ccc(C(=O)CCC(=O)O)cc1F`, with 171 °C.
As for `CCOc1ccc(C(=O)O)cc1`, the figure is 198 °C.
Then `Brc1c[nH]cn1`, with 126 to 132 °C; and `CC(C)(C)Oc1ccc(O)cc1`, with 152 °C; and `N#Cc1ccc(C#N)c(OC(F)(F)F)c1`, with 79 to 81 °C.
With `Cc1cc(C)c2c(c1)CC1CCCCN1C2=O` (stereo not drawn), the melting point is 102 °C.
Take `Cc1c(S(=O)(=O)Cl)cnn1-c1ccccc1`: the melting point stood at 57 °C.
Then `Nc1cc([N+](=O)[O-])ccc1F`, with 101 °C; and `O=[N+]([O-])c1cc(C(F)(F)F)ccc1N1CCOCC1`, with 34 to 36 °C.
As for `FC(F)(F)c1cccc(Cl)c1`, the figure is -56 °C.
Then `Nc1cccc(-c2ccncc2)c1`, with 167 to 168 °C; and `C(=N\c1ccc(-c2ccc(/N=N/c3ccccc3)cc2)cc1)/c1ccccc1`, with 226 °C.
Compound `COC(=O)c1ccccc1-n1c(=S)[nH]c2ccccc2c1=O` yielded a melting point of 255 to 257 °C.
As for `Clc1ccc2c(c1)C(N1CCNCC1)=Nc1ccccc1O2`, the figure is 176 °C; as for `CC(=O)N1N=C(c2ccc3ccccc3c2)C[C@@H]1c1ccc(Cl)c(Cl)c1`, 242 °C.
Take `CNc1ccc(NCCO)c2c1C(=O)c1ccccc1C2=O`: the melting point worked out at 187 °C.
`O=C(CC(=O)c1cc(Br)ccc1O)c1ccccc1` came in with a melting point of 100 to 103 °C.
As for `CSc1nc(N)c(C(=O)c2ccc(Br)cc2)s1`, the figure is 163 to 165 °C.
Then `CC(Cc1ccccc1)c1ccccc1` (stereo not drawn), with 52 °C; and `O=C1/C(=N/Nc2ccc(F)cc2)C(C(F)(F)F)=NN1c1ccccc1`, with 185 °C; and `CC(=O)c1ccc(F)c(Br)c1`, with 56 °C.
As for `CCC(=O)Oc1ccccc1`, the figure is 20 °C; as for `CCCCCF`, -120 °C.
